# Source: PubChem BioAssay (NCI)
#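 Following 48 hours of exposure in 96-well plates, responses at five concentrations were used to interpolate endpoints linearly. Abbreviation: GI50, concentration required for 50% inhibition of growth. TGI: total growth inhibition.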
# Legend:
# Experiment in all cases: DTP human tumour cell line panel, 48 h
# CAKI-1 renal = tested on: CAKI-1 renal
# NCI-H460 lung = tested on: NCI-H460 lung
# TK-10 renal = tested on: TK-10 renal
# NCI-H522 lung = tested on: NCI-H522 lung
# DU-145 prostate = tested on: DU-145 prostate
# HCT-116 colon = tested on: HCT-116 colon
# M14 melanoma = tested on: M14 melanoma
# UACC-257 melanoma = tested on: UACC-257 melanoma
# SNB-19 CNS = tested on: SNB-19 CNS
# U251 CNS = tested on: U251 CNS
Structure (SMILES),GI50 (CAKI-1 renal) [nM],TGI (CAKI-1 renal) [µM],GI50 (NCI-H460 lung) [nM],TGI (NCI-H460 lung) [µM],GI50 (TK-10 renal) [µM],TGI (TK-10 renal) [µM],GI50 (NCI-H522 lung) [nM],TGI (NCI-H522 lung) [µM],GI50 (DU-145 prostate) [nM],TGI (DU-145 prostate) [µM],GI50 (HCT-116 colon) [nM],TGI (HCT-116 colon) [µM],GI50 (M14 melanoma) [nM],TGI (M14 melanoma) [µM],TGI (UACC-257 melanoma) [µM],TGI (SNB-19 CNS) [µM],TGI (U251 CNS) [µM],GI50 (UACC-257 melanoma) [µM],GI50 (SNB-19 CNS) [nM],GI50 (U251 CNS) [nM]
CC(=O)Oc1ccc(C(c2ccc(OC(C)=O)cc2)c2ccccn2)cc1,46800,> 100,> 78500,> 100,> 59.7,> 100,59000,> 100,98200,> 100,40700,> 100,56600,> 100,> 100,> 100,> 100,–,–,–
COc1cc2c3c(n(CCCN=[N+]=[N-])c(=O)c2cc1OC)-c1ccc(N(C)C)cc1C3=O,–,–,> 100000,> 100,> 100,> 100,> 100000,> 100,> 100000,> 100,–,–,> 100000,> 100,> 100,> 100,> 100,> 100,> 100000,> 100000
COc1ccc(Nc2cc(C)nc(N3CCN(c4ccnc5cc(Cl)ccc45)CC3)n2)cc1,2710,> 100,1920,> 100,3.64,47.6,2020,5.27,6570,> 100,1340,3.24,1750,5.32,> 100,> 100,36.6,3.34,4830,3060
O=C(Nc1ccc(I)cc1F)c1cc(Cl)ccc1O,305,2.34,434,> 26.9,1.13,16.3,324,4.68,681,> 100,403,1.95,407,4.72,3.99,> 100,> 100,0.467,372,590
Cc1cccc(Nc2cnc(N)nc2N)c1,–,> 100,–,–,–,> 100,–,> 100,–,> 100,–,> 100,–,> 100,> 100,> 100,> 100,–,–,–
O=C(Nc1ccc(Cl)c(Cl)c1)OCCN1c2ccccc2Sc2ccccc21,–,> 10,–,–,–,> 10,–,> 10,–,> 10,–,> 10,–,> 10,> 10,> 10,> 10,–,–,–
Cc1ccc(-c2nc(N3CCCNCC3)c3oc(-c4ccc(C)cc4)nc3n2)cc1,1560,3.02,1890,3.43,2.08,3.96,1750,3.51,1890,3.3,1570,2.92,1850,3.55,41.1,3.25,3.18,19.8,1770,1760
CC(C)COC(=O)c1ccc2[nH]c(O)c(C=Nc3ccc(S(N)(=O)=O)cc3)c2c1,2860,16.7,787,3.41,1.65,4.52,4030,8.5,805,3.8,613,3,1250,4.8,9.44,13.7,4.13,3.99,1930,879
CC(Br)C(=O)Nc1ccc(C(=O)O)c(O)c1 (configuration not stated),–,> 100,–,> 100,–,> 100,–,47.1,–,> 100,–,> 100,–,> 100,> 100,> 100,62.8,–,–,–
COc1ccc(Nc2c3ccccc3nc3[nH]c4ccccc4c23)cc1,14000,> 50,2280,> 50,26.7,> 50,41500,> 50,6470,33.9,4830,28,–,–,> 50,> 50,42.8,21.2,25500,11700
C=CS(=O)(=O)CCN1CC1,–,> 10,–,–,–,> 10,–,> 10,–,> 10,–,> 10,–,> 10,> 10,–,> 10,–,–,–
CC1=C(/C=C/C(C)=C/C=C/C(C)=C/CO)C(C)(C)CCC1,–,> 100,–,> 100,–,–,–,54.7,–,> 100,–,–,–,35.7,84.4,69.4,39,–,–,–
COc1ccc(OC)c(Nc2nc(-c3c(C)nc4sccn34)cs2)c1,–,–,> 100000,> 100,87.5,> 100,52600,> 100,> 100000,> 100,> 100000,> 100,> 100000,> 100,> 100,> 100,> 100,> 100,41400,> 100000
COC(=O)[C@@H](C)C[C@H](Cc1ccccc1)NC(=O)c1csc([C@@H](C[C@H](C(C)C)N(C)C(=O)[C@H](C)NC(=O)[C@H]2CCCCN2C)OC(C)=O)n1,–,–,1180,> 25,> 25,> 25,384,1.35,1050,> 25,774,> 25,859,11.3,> 25,> 25,> 25,> 25,901,1580
CCn1c2ccccc2c2cc(C(O)c3cccc4ncccc34)ccc21 (configuration not stated),42.5,> 100,38.8,4.61,3.7,> 78.6,21.2,0.107,82.8,4.78,44.1,15.4,46.8,> 100,–,34.7,3.56,–,43.7,41.1
O=C1OC(OCC#CCOC2OC(=O)C(Cl)=C2Cl)C(Cl)=C1Cl (configuration not stated),–,–,–,58.9,–,21.8,–,3.72,–,38.2,–,21.8,–,23.9,32.3,42.5,–,–,–,–
